# Tests used:
# [1] = Pharmacokinetic study of tadalafil in plasma after oral administration; type: in vivo, rats (Sprague Dawley); conditions: rats
# Description: The following pharmacokinetic (PK) study was conducted to determine the efficacy of a composition according to the present teachings, following its oral administration to rats.
# Nine young adult healthy rats (Sprague Dawley), having an initial mean body weight of about 243.1 +1.8 g, were used in this study. They were individually tail marked and housed within a limited access caged rodent facility. The rats were randomly divided into groups of 3, and were kept with their groups in cages, in a controlled environment at a temperature of 17-23° C., with a relative humidity (RH) of 30-70%, a 12:12 hour light:dark cycle and 15 air changes/h in the study room. […]
# Nano-dispersion ND39, as listed in Table 5-II, was used as the tested composition. ND39 contains tadalafil as the polar-carrier insoluble active agent present in the core of the nano-elements, and its concentration in the rats' blood was monitored. […]
# The plasma samples were combined with acetone, allowing the dissolution of the nano-elements and making the tadalafil available for measuring, followed by centrifugation whereby plasma proteins were precipitated. The obtained supernatant was removed and analyzed by LC-MS/MS vs. a tadalafil calibration curve prepared in advance, in the range of 1 ng/ml to 10 ug/ml. […]
# [2] = Thermo-rheometer viscosity of WITC (PCL), unplasticized or blended with plasticizing agents / premixes; type: physicochemical
# Description: Thermo-rheometer: Thermo Scientific (Germany) Haake Mars III, with a C20/1° spindle, a gap of 0.052 mm, and a shear rate of 10 sec^−1. […]
# Samples corresponding to the above-described premixes were additionally tested for their viscosity at the end of the mixing step, when the WITCs were at least homogeneously blended with the polar-carrier-insoluble materials, and in most case plasticized by the non-volatile liquids if present. Viscosity was determined as previously described at a shear rate of 10 sec^−1 over a range of temperatures between 20° C. and 80° C., and for all samples so tested the viscosity as measured at 50° C. was typically found to be of less than 10^6 mPa·s, being generally between 10^3 mPa·s and 10^5 mPa·s, often not exceeding 5×10^4 mPa·s, and many samples even having a viscosity of less 10^4 mPa·s.
# In a first series of experiments, the viscosity was measured on blends of materials forming a homogeneous mass adapted for nano-sizing by the present methods. PCL and a non-volatile liquid or a fatty amine serving as SFA at various weight per weight ratios were combined in a glass vial and the sealed vials were placed in an oven pre-heated to 80° C. The PCL: non-volatile liquid ratios tested were 1:1 and 1:2.33 and the PCL: fatty amine ratios tested were 1:0.1, 1:0.33, 1:0.5 and 1:1. Following 1 hour of incubation under heat, the contents of the vials were mixed by hand for about 30 seconds, until clear solutions were obtained. The samples were allowed to cool down overnight (i.e., at least 12 hours) at room temperature so as to solidify.
# Solid samples were then transferred to a rheometer where their respective viscosity was measured as a function of temperature between room temperature and 70° C. at a ramping up temperature of 10° C./min. The viscosities (or 2nd viscosities) of the samples as measured at 50° C. and 70° C. are summarized in Table 2-II(A), including in the first row the first viscosities of a reference sample made of PCL alone, unplasticized, under same conditions.
# [3] = PCL:plasticizing agent w/w ratio 1:1
# [4] = PCL:plasticizing agent w/w ratio 1:2.33
# [5] = PCL:plasticizing agent w/w ratio 1:0.33
# [6] = PCL:plasticizing agent w/w ratio 1:0.5
structure (smiles),measurement,setting,value
"CN1CC(=O)N2[C@H](c3ccc4c(c3)OCO4)c3[nH]c4ccccc4c3C[C@@H]2C1=O [Ref. T, Tadalafil]","% CV of plasma tadalafil concentration, average for all time points",[1]; 3 animals per time point,31.1%
same,AUC0-∞/D (area under curve zero to infinity normalized to dose of tadalafil),"[1]; ND39 about 16 mg/kg, Ref. C about 18.7 mg/kg, Ref. T about 18.1 mg/kg","about 1,249 h.mg/ml"
"CCCCOC(=O)CCCCC(=O)OCCCC [Cetiol ® B, Dibutyl adipate]",PCL 2nd viscosity at 50° C. [mPa · s],[2]; [3],5.0 × 10^3 mPa · s
same,PCL 2nd viscosity at 70° C. [mPa · s],[2]; [3],2.2 × 10^3 mPa · s
same,PCL 2nd viscosity at 50° C. [mPa · s],[2]; [4],215 mPa · s
same,PCL 2nd viscosity at 70° C. [mPa · s],[2]; [4],164 mPa · s
CCCCCCCC/C=C\CCCCCCCCN [Oleyl amine],PCL 2nd viscosity at 50° C. [mPa · s],[2]; [5],1.9 × 10^3 mPa · s
same,PCL 2nd viscosity at 70° C. [mPa · s],[2]; [5],1.7 × 10^3 mPa · s
same,PCL 2nd viscosity at 50° C. [mPa · s],[2]; [6],6.7 × 10^3 mPa · s
same,PCL 2nd viscosity at 70° C. [mPa · s],[2]; [6],4.4 × 10^3 mPa · s
CCCCCCCCN(CCCCCCCC)CCCCCCCC [Trioctyl amine],PCL 2nd viscosity at 50° C. [mPa · s],[2]; [3],544 mPa · s
same,PCL 2nd viscosity at 70° C. [mPa · s],[2]; [3],279 mPa · s

# Source: patent US20250268840A1, “USE OF NANO-CARRIERS FOR DELIVERY OF ACTIVE AGENTS” (LANDA LABS (2012) LTD., priority 2022, published 2025)
